Measurements published in ChEMBL document CHEMBL1128242, “Polyiodinated triglyceride analogs as potential computed tomography imaging agents for the liver” (J Med Chem, 1995).
Several values for one entry are separate records, joined by “and”; a condition that tells them apart may be missing. Equal entries are not always repeated.

Assays:
[1] = tested on: Rattus norvegicus; test: Distribution of radioactivity was determined in spleen at 30 min after intravenous administration of [125I]-labeled 2-oleoglycerol 1,3-Bis-[omega-(3-amino-2,4,6-triiodophenyl)alkanoates] in rats; assay type: ADME, organism-based; conditions: in vivo, 0.5 h
[2] = tested on: Rattus norvegicus; test: Analysis of lipid-soluble radioactivity in plasma 0.5 hour after iv administration of [125I]-labeled 2-Oleoyl 1,3-disubstituted Triacylglycerols and represented as % CHCl3/CH3OH from rat; assay type: ADME, organism-based; conditions: in vivo
[3] = tested on: Rattus norvegicus; test: Analysis of lipid-soluble radioactivity in liver 0.5 hour after iv administration of [125I]-labeled 2-Oleoyl 1,3-disubstituted Triacylglycerols and represented as % CHCl3/CH3OH from rat; assay type: ADME, organism-based; conditions: in vivo
[4] = tested on: Rattus norvegicus; test: Distribution of radioactivity was determined in liver at 30 min after intravenous administration of 1,3-Disubstituted Triacylglycerols in rats; assay type: ADME, organism-based; conditions: in vivo, 0.5 h
[5] = tested on: Rattus norvegicus; test: Distribution of radioactivity was determined in liver at 48 hr after intravenous administration of 1,3-Disubstituted Triacylglycerols in rats; assay type: ADME, organism-based; conditions: in vivo
[6] = tested on: Rattus norvegicus; test: Distribution of radioactivity was determined in plasma at 3h after intravenous administration of [125I]-labeled 2-oleoglycerol 1,3-Bis-[omega-(3-amino-2,4,6-triiodophenyl)alkanoates] in rats; assay type: ADME, organism-based; conditions: in vivo
[7] = tested on: Rattus norvegicus; test: Distribution of radioactivity was determined in liver at 24 hr after intravenous administration of 1,3-Disubstituted Triacylglycerols in rats; assay type: ADME, organism-based; conditions: in vivo
[8] = tested on: Rattus norvegicus; test: Distribution of radioactivity was determined in liver at 3h after intravenous administration of [125I]-labeled 2-oleoglycerol 1,3-Bis-[omega-(3-amino-2,4,6-triiodophenyl)alkanoates] in rats; assay type: ADME, organism-based; conditions: in vivo
[9] = tested on: Rattus norvegicus; test: Distribution of radioactivity was determined in heart at 3h after intravenous administration of [125I]-labeled 2-oleoglycerol 1,3-Bis-[omega-(3-amino-2,4,6-triiodophenyl)alkanoates] in rats; assay type: ADME, organism-based; conditions: in vivo
[10] = tested on: Rattus norvegicus; test: Analysis of lipid-soluble radioactivity in plasma 24 hour after iv administration of [125I]-labeled 2-Oleoyl 1,3-disubstituted Triacylglycerols and represented as % CHCl3/CH3OH from rat; assay type: ADME, organism-based; conditions: in vivo
[11] = tested on: Rattus norvegicus; test: Distribution of radioactivity was determined in blood at 3h after intravenous administration of 1,3-Disubstituted Triacylglycerols in rats; assay type: ADME, organism-based; conditions: in vivo
[12] = tested on: Rattus norvegicus; test: Polyacrylamide Gel Electrophoresis (PAGE) to determined the concentration of stacking gel(SG) in rats after iv administration of [125I]-labeled 2-Oleolyl 1,3-disubstituted triglycerols was reported; assay type: ADME, organism-based; conditions: in vivo
[13] = tested on: Rattus norvegicus; test: Distribution of radioactivity was determined in blood at 24 hr after intravenous administration of 1,3-Disubstituted Triacylglycerols in rats; assay type: ADME, organism-based; conditions: in vivo
[14] = tested on: Rattus norvegicus; test: Distribution of radioactivity was determined in lung at 3h after intravenous administration of [125I]-labeled 2-oleoglycerol 1,3-Bis-[omega-(3-amino-2,4,6-triiodophenyl)alkanoates] in rats; assay type: ADME, organism-based; conditions: in vivo
[15] = tested on: Rattus norvegicus; test: Distribution of radioactivity was determined in spleen at 24 hr after intravenous administration of 1,3-Disubstituted Triacylglycerols in rats; assay type: ADME, organism-based; conditions: in vivo
[16] = tested on: Rattus norvegicus; test: Distribution of radioactivity was determined in thyroid at 30 min after intravenous administration of [125I]-labeled 2-oleoglycerol 1,3-Bis-[omega-(3-amino-2,4,6-triiodophenyl)alkanoates] in rats; assay type: ADME, organism-based, Thyroid gland; conditions: in vivo, 0.5 h
[17] = tested on: Rattus norvegicus; test: Distribution of radioactivity was determined in lung at 24 hr after intravenous administration of [125I]-labeled 2-oleoglycerol 1,3-Bis-[omega-(3-amino-2,4,6-triiodophenyl)alkanoates] in rats; assay type: ADME, organism-based; conditions: in vivo
[18] = tested on: Rattus norvegicus; test: Distribution of radioactivity was determined in liver at 30 min after intravenous administration of [125I]-labeled 2-oleoglycerol 1,3-Bis-[omega-(3-amino-2,4,6-triiodophenyl)alkanoates] in rats; assay type: ADME, organism-based; conditions: in vivo, 0.5 h
[19] = tested on: Rattus norvegicus; test: Distribution of radioactivity was determined in kidney at 3h after intravenous administration of [125I]-labeled 2-oleoglycerol 1,3-Bis-[omega-(3-amino-2,4,6-triiodophenyl)alkanoates] in rats; assay type: ADME, organism-based; conditions: in vivo
[20] = tested on: Rattus norvegicus; test: Distribution of radioactivity was determined in heart at 24 after intravenous administration of [125I]-labeled 2-oleoglycerol 1,3-Bis-[omega-(3-amino-2,4,6-triiodophenyl)alkanoates] in rats; assay type: ADME, organism-based; conditions: in vivo
[21] = tested on: Rattus norvegicus; test: Polyacrylamide Gel Electrophoresis (PAGE) to determined the concentration of high density lipoprotein (HDL) in rats after iv administration of [125I]-labeled 2-Oleolyl 1,3-disubstituted triglycerols was reported; assay type: ADME, organism-based; conditions: in vivo
[22] = tested on: Rattus norvegicus; test: Polyacrylamide Gel Electrophoresis (PAGE) to determined the concentration of albumin(ALB) in rats after iv administration of [125I]-labeled 2-Oleolyl 1,3-disubstituted triglycerols was reported; assay type: ADME, organism-based; conditions: in vivo
[23] = tested on: Rattus norvegicus; test: Distribution of radioactivity was determined in liver at 24 hr after intravenous administration of [125I]-labeled 2-oleoglycerol 1,3-Bis-[omega-(3-amino-2,4,6-triiodophenyl)alkanoates] in rats; assay type: ADME, organism-based; conditions: in vivo
[24] = tested on: Rattus norvegicus; test: Distribution of radioactivity was determined in kidney at 24 hr after intravenous administration of [125I]-labeled 2-oleoglycerol 1,3-Bis-[omega-(3-amino-2,4,6-triiodophenyl)alkanoates] in rats; assay type: ADME, organism-based; conditions: in vivo
[25] = tested on: Rattus norvegicus; test: Analysis of lipid-soluble radioactivity in liver 24 hour after iv administration of [125I]-labeled 2-Oleoyl 1,3-disubstituted Triacylglycerols and represented as % CHCl3/CH3OH from rat; assay type: ADME, organism-based; conditions: in vivo
[26] = tested on: Rattus norvegicus; test: Distribution of radioactivity was determined in plasma at 30 min after intravenous administration of [125I]-labeled 2-oleoglycerol 1,3-Bis-[omega-(3-amino-2,4,6-triiodophenyl)alkanoates] in rats; assay type: ADME, organism-based; conditions: in vivo, 0.5 h
[27] = tested on: Rattus norvegicus; test: Distribution of radioactivity was determined in lung at 30 min after intravenous administration of [125I]-labeled 2-oleoglycerol 1,3-Bis-[omega-(3-amino-2,4,6-triiodophenyl)alkanoates] in rats; assay type: ADME, organism-based; conditions: in vivo, 0.5 h
[28] = tested on: Rattus norvegicus; test: Distribution of radioactivity was determined in blood at 30 min after intravenous administration of 1,3-Disubstituted Triacylglycerols in rats; assay type: ADME, organism-based; conditions: in vivo, 0.5 h
[29] = tested on: Rattus norvegicus; test: Distribution of radioactivity was determined in spleen at 24 hr after intravenous administration of [125I]-labeled 2-oleoglycerol 1,3-Bis-[omega-(3-amino-2,4,6-triiodophenyl)alkanoates] in rats; assay type: ADME, organism-based; conditions: in vivo
[30] = tested on: Rattus norvegicus; test: Distribution of radioactivity was determined in thyroid at 24 hr after intravenous administration of [125I]-labeled 2-oleoglycerol 1,3-Bis-[omega-(3-amino-2,4,6-triiodophenyl)alkanoates] in rats; assay type: ADME, organism-based, Thyroid gland; conditions: in vivo
[31] = tested on: Rattus norvegicus; test: Polyacrylamide Gel Electrophoresis (PAGE) to determined the concentration of below albumin(BA) in rats after iv administration of [125I]-labeled 2-Oleolyl 1,3-disubstituted triglycerols was reported; assay type: ADME, organism-based; conditions: in vivo
[32] = tested on: Rattus norvegicus; test: Distribution of radioactivity was determined in blood at 3h after intravenous administration of [125I]-labeled 2-oleoglycerol 1,3-Bis-[omega-(3-amino-2,4,6-triiodophenyl)alkanoates] in rats; assay type: ADME, organism-based; conditions: in vivo
[33] = tested on: Rattus norvegicus; test: Distribution of radioactivity was determined in blood at 48 hr after intravenous administration of 1,3-Disubstituted Triacylglycerols in rats; assay type: ADME, organism-based; conditions: in vivo
[34] = tested on: Rattus norvegicus; test: Distribution of radioactivity was determined in spleen at 30 min after intravenous administration of 1,3-Disubstituted Triacylglycerols in rats; assay type: ADME, organism-based; conditions: in vivo, 0.5 h
[35] = tested on: Rattus norvegicus; test: Analysis of lipid-soluble radioactivity in plasma 0.5 hour after iv administration of [125I]-labeled 2-Oleoyl 1,3-disubstituted Triacylglycerols expressed as %parent compound (by TLC with authentic [125I]-labeled standard) from rat; assay type: ADME, organism-based; conditions: in vivo

| SMILES | Distribution of radioactivity [1] [% dose/g] | Lipid-soluble radioactivity [2] | Lipid-soluble radioactivity [3] | Radioactivity per organ [4] [% dose/organ] | Distribution of radioactivity [5] [% dose/organ] | Distribution of radioactivity [6] [% dose/g] | Distribution of radioactivity [7] [% dose/organ] | Distribution of radioactivity [8] [% dose/g] | Distribution of radioactivity [9] [% dose/g] | Lipid-soluble radioactivity [10] | Distribution of radioactivity [11] [% dose/organ] | Radioactivity [12] [%] | Distribution of radioactivity [13] [% dose/organ] | Distribution of radioactivity [14] [% dose/g] | Distribution of radioactivity [15] [% dose/organ] | Distribution of radioactivity [16] [% dose/g] | Distribution of radioactivity [17] [% dose/g] | Distribution of radioactivity [18] [% dose/g] | Distribution of radioactivity [19] [% dose/g] | Distribution of radioactivity [20] [% dose/g] | other results |
| --- | --- | --- | --- | --- | --- | --- | --- | --- | --- | --- | --- | --- | --- | --- | --- | --- | --- | --- | --- | --- | --- |
| CCCCCCCC/C=C/CCCCCCCC(=O)OC(COC(=O)Cc1c(I)cc(I)c(N)c1I)COC(=O)Cc1c(I)cc(I)c(N)c1I | 23.4 | 54.2 and 86.3 | 62.6 | 69.8 | 59.7 | 0.07 | 72.5 | 10.3 | 0.1 | 24.4 | 0.5 | 95.7 | 0.2 | 0.38 | 12.2 | 0.16 | 0.52 | 7.9 | 0.04 | 0.03 | Radioactivity [21]: 0.7%; Radioactivity [22]: 1.8%; Distribution of radioactivity [23]: 9.09 % dose/g; Distribution of radioactivity [24]: 0.07 % dose/g; Lipid-soluble radioactivity [25]: 59.5; Distribution of radioactivity [26]: 1.25 % dose/g; Distribution of radioactivity [27]: 0.72 % dose/g; Distribution of radioactivity [28]: 7.6 % dose/organ; Distribution of radioactivity [29]: 24.2 % dose/g; Distribution of radioactivity [30]: 2.58 % dose/g; Radioactivity [31]: 1.1%; Distribution of radioactivity [32]: 0.04 % dose/g; Distribution of radioactivity [33]: 0.1 % dose per organ; Distribution of radioactivity [34]: 12 % dose/organ |
| CCCCCCCC/C=C/CCCCCCCC(=O)OC(COC(=O)CCCCc1c(I)cc(I)c(N)c1I)COC(=O)CCCCc1c(I)cc(I)c(N)c1I | 17.9 | 77.4 | 91.1 | 65.1 | 26.8 | 0.09 | 36.1 | 6.94 | 0.09 | 54.5 | 0.9 | 65.6 | 1.4 | 0.46 | 6.4 | 0.54 | 0.59 | 7.37 | 0.09 | 0.07 | Lipid-soluble radioactivity [35]: 42.3; Radioactivity [21]: 5.5%; Radioactivity [22]: 20.7%; Distribution of radioactivity [23]: 4.53 % dose/g; Distribution of radioactivity [24]: 0.2 % dose/g; Lipid-soluble radioactivity [25]: 88.8; Distribution of radioactivity [26]: 0.1 % dose/g; Distribution of radioactivity [27]: 0.54 % dose/g; Distribution of radioactivity [28]: 0.9 % dose/organ; Distribution of radioactivity [29]: 13.7 % dose/g; Distribution of radioactivity [30]: 6.74 % dose/g; Radioactivity [31]: 0.1%; Distribution of radioactivity [32]: 0.08 % dose/g; Distribution of radioactivity [33]: 0.7 % dose per organ; Distribution of radioactivity [34]: 9.5 % dose/organ |
| CCCCCCCC/C=C/CCCCCCCC(=O)OC(COC(=O)C(CC)Cc1c(I)cc(I)c(N)c1I)COC(=O)C(CC)Cc1c(I)cc(I)c(N)c1I (centres undefined) | 24.8 | 88.2 | 97.5 | 78 | 71.6 | 0.03 | 77 | 9 | 0.25 | 83 | 0.3 | 83.5 | 0.1 | 0.2 | 12.5 | 2.88 | 0.62 | 9.67 | 0.03 | 0.06 | Lipid-soluble radioactivity [35]: 26.5; Radioactivity [21]: 2.5%; Radioactivity [22]: 4.9%; Distribution of radioactivity [23]: 10.2 % dose/g; Distribution of radioactivity [24]: 0.05 % dose/g; Lipid-soluble radioactivity [25]: 93.7; Distribution of radioactivity [26]: 0.42 % dose/g; Distribution of radioactivity [27]: 0.34 % dose/g; Distribution of radioactivity [28]: 2.6 % dose/organ; Distribution of radioactivity [29]: 21.7 % dose/g; Distribution of radioactivity [30]: 17.3 % dose/g; Radioactivity [31]: 1.5%; Distribution of radioactivity [32]: 0.02 % dose/g; Distribution of radioactivity [33]: 0.1 % dose per organ; Distribution of radioactivity [34]: 14.4 % dose/organ |
